# Data reported in article PMC4937820, “Identification of selective inhibitors of RET and comparison with current clinical candidates through development and validation of a robust screening cascade” (F1000Research, 2016).
# How the values were obtained:
# RET [1] = settings: MZ-CRC-1 cells; confirmed in-house (data not shown); read-out: IC 50 in MZ-CRC-1 cells (RET); cited from earlier work
# [2] = tested on: MZ-CRC-1 (RET (M918T)) versus HEK293 cells; assay: Cell POP (proof of principle) proliferation assay, MZ-CRC-1 vs HEK293 control; assay type: cell-based, human; settings: IC50 HEK293 control cells divided by IC50 MZ-CRC-1 cells
# RET-positive patients = settings: preliminary report of phase II trial; cited from earlier work
# RET [3] = molecular target: RET (Homo sapiens, UniProt P07949, M918T); assay: RET cellular POM (proof of mechanism) assay; assay type: cell-based
# Sequence of RET (Homo sapiens, UniProt P07949, M918T) (P07949 29-1114 M918T): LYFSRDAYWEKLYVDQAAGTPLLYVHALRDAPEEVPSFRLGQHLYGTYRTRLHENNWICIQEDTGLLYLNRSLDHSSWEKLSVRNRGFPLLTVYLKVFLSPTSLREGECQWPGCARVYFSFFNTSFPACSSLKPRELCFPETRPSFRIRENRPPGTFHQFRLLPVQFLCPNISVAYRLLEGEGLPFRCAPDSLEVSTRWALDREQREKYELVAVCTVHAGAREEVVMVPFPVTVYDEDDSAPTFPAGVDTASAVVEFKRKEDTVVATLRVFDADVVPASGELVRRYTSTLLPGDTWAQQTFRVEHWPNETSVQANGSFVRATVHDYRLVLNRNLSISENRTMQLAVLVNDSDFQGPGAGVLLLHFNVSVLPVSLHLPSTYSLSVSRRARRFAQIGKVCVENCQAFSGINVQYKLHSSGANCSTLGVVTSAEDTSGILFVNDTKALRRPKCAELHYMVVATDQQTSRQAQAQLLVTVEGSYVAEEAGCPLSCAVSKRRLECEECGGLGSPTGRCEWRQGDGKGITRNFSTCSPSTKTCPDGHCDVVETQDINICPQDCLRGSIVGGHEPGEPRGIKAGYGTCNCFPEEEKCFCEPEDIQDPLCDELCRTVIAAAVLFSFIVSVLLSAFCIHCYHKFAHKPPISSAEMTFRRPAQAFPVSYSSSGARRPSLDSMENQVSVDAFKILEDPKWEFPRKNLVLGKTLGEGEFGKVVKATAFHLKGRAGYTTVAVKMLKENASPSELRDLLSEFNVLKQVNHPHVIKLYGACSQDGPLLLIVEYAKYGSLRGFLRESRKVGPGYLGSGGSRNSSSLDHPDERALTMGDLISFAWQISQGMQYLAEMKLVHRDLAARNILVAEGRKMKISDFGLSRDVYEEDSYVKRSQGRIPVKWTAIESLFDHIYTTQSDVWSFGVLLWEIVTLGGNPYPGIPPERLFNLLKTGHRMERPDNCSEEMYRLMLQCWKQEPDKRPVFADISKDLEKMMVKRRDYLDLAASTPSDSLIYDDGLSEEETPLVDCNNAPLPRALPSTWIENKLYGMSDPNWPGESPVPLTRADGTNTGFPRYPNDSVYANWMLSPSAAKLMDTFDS
# RET [4] = assay: Western blot of pRET, total RET and GAPDH in MZ-CRC-1 cells; assay type: cell-based; settings: 1µM, 24 hours
# Experimental: Following compound treatment (1µM, 24 hours), MZ-CRC-1 cell lysates (50 μg) were subjected to polyacrylamide gel electrophoresis (PAGE) and semi-dry transfer to nitrocellulose membrane using the Bio-Rad Trans-Blot Turbo system and Trans-Blot Turbo transfer packs. Membranes were blocked overnight at 4°C in phosphate-buffered saline containing 0.1% Tween (PBST; Sigma) and 5% non-fat dried milk powder (marvel). Primary and secondary antibody incubations were performed at room temperature in PBST/0.5% marvel with 3× PBST washes post incubation. pRET (Santa Cruz #SC-20252-R) and total RET (Santa Cruz #sc-167) antibodies were used at 1:500 dilutions; GAPDH (Cell Signaling Technology #2118L) and secondary goat anti rabbit IgG HRP-linked (Cell Signaling Technology #7074) antibodies were used at 1:1000. Proteins were visualized by chemiluminescent detection of peroxidase activity using SuperSignal reagent (Pierce), and images were captured using the Syngene imager and GeneSys software.
Compound,Toxicity Margin [2],also measured
CCc1cc2c(cc1N1CCC(N3CCOCC3)CC1)C(C)(C)c1[nH]c3cc(C#N)ccc3c1C2=O [Alectinib],^1>35×,IC50 (RET [1]): […]
CCN(CC)CCNC(=O)c1c(C)[nH]c(/C=C2\C(=O)Nc3ccc(F)cc32)c1C [Sunitinib],28×,–
COc1cc2nccc(Oc3ccc(NC(=O)C4(C(=O)Nc5ccc(F)cc5)CC4)cc3)c2cc1OC [Cabozantinib],–,Clinical response (RET-positive patients): partial responses in two of three RET-positive patients
COc1cc2nccc(Oc3ccc(NC(=O)NC4CC4)c(Cl)c3)c2cc1C(N)=O [Lenvatinib],141×,–
CC(C)c1cc(-c2n[nH]c(=O)n2-c2ccc3c(ccn3C)c2)c(O)cc1O [Ganetespib],0.7×,"Selectivity vs. KDR (cell) (RET [3]; cellular, KDR IC50 divided by RET IC50): 0.36×; IC50 (RET [3]; geometric mean of at least four independent measurements, read-out: RET Cell IC 50): 3.9 nM; Effect on levels of active RET (RET [4]): reduce levels of active RET, through protein degradation"
CNC(=O)c1cc(Oc2ccc(NC(=O)Nc3ccc(Cl)c(C(F)(F)F)c3)cc2)ccn1 [Sorafenib],13×,–
